Measured values as given in patent publication US20240156822A1, “Methods For Treatment of Vitiligo” (Pfizer Inc., priority 2022, published 2024).

Test system: vitiligo
Experiment: Clinical study of treatment of vitiligo: central read facial-VASI (primary efficacy endpoint)
Type: in vivo, human
Details: for Placebo-adjusted LS mean CFB (SE); % CFB in Central F-VASI at Week 24: oral once daily
Method: Subjects take the medication set forth herein orally once daily, and typically swallow the tablets whole with approximately one cup of ambient temperature water, without any manipulation or chewing. Dosing regimes include induction dosing of 100 or 200 mg and maintenance dosing of 50 mg, or a 24-week Treatment Period in which participants were treated with ritlecitinib 50 mg, 30 mg, or 10 mg. The induction period is an initial period of treatment of 4 weeks in the initial clinical trial. The maintenance period is 20 weeks Tablets may be taken with or without food. Subject response is evaluated at regular intervals after administration. The Vitiligo Area Scoring Index (VASI) is a validated quantitative scale, initially developed to measure the response of vitiligo to nbUVB treatment, but has since been used to evaluate various therapies for vitiligo. Clinical evaluations of vitiligo in this study include VASI, central read and site assessment of facial-VASI, static Investigator Global Assessment (sIGA), Body Surface Area (BSA) involvement, Vitiligo Extent Score (VES), and dermoscopy. Self-Assessment VES (SA-VES), Vitiligo Specific Quality of Life (VitiQoL), Dermatology Life Quality Index (DLQL), Hospital Anxiety and Depression Scale (HADS), Patient Global Impression of Change Vitiligo (PGIC-V), EQ-5D-5L, Healthcare Resource Utilization (HCRU) and Vitiligo Noticeability Scale (VNS). (b) Facial Vitiligo Area Scoring Index (Facial-VASI)—Central Read The central read facial-VASI are assessed based on the facial photographs taken at the site by a central reader. Clinical Trial Imaging Endpoint Process Standards—Guidance for Industry (April 2018). The central read facial-VASI is calculated using a formula that includes contribution of affected facial surface areas showing all six (6) different depigmentation rates (0.1, 0.25, 0.5, 0.75, 0.9 and 1) with a modified method described by Hamzavi et al. Hamzavi, I., […] The calculation of % affected total body surface area (BSA) is shown below: • Affected Facial Surface Area×4=% Affected Total Body Surface Area. Face is defined as the area from the hairline on top of the forehead to the jawline at the bottom of the cheeks. Facial-VASI (central read) will range from 0.000 to 4.000 by defining the affected Facial Surface Area (expressed as the value between 0.0 to 1.0) being 4% of total Body Surface Area. For example: 25% affected Facial Surface Area (0.25) represents 1% total body surface area (0.25×4). 15% affected Facial Surface Area (0.15) represents 0.6% total body surface area (0.15×4). The extent of depigmentation is expressed by the following percentages: 0, 10%, 25%, 50%, 75%, 90%, or 100%. At 100% depigmentation, no pigment is present; at 90%, specks of pigment are present; at 75%, the depigmented exceeded the pigmented area; at 50%, the depigmented and pigmented areas are equal; at 25%, the pigmented area exceeded the depigmented area; and at 10%, only specks of depigmentation are present. Scalp, neck, eyebrows, eyelashes, and vermilion are excluded from this calculation, although total VASI assessment includes all of these regions.

What does the source list for `C=CC(=O)N1C[C@H](Nc2ncnc3[nH]ccc23)CC[C@@H]1C` [Ritlecitinib, 1-[(2S,5R)-2-methyl-5-(7H-pyrrolo[2,3-d]pyrimidin-4-ylamino)-1-piperidinyl]-2-propen-1-one]?
Efficacy criterion for the primary endpoint (% CFB in Central F-VASI at Week 24) (initial clinical studies): met the efficacy criterion for the primary endpoint; Placebo-adjusted LS mean CFB (SE); % CFB in Central F-VASI at Week 24 (treatment group 10 mg, 24-week treatment period): −4.13%; Placebo-adjusted LS mean CFB (SE); % CFB in Central F-VASI at Week 24 (treatment group 30 mg, 24-week treatment period): −16.93%; Placebo-adjusted LS mean CFB (SE); % CFB in Central F-VASI at Week 24 (treatment group 50 mg, 24-week treatment period): −22.05%; Placebo-adjusted LS mean CFB (SE); % CFB in Central F-VASI at Week 24 (treatment group 100/50 mg (induction 100 mg 4 weeks, maintenance 50 mg 20 weeks)): −22.99%; Placebo-adjusted LS mean CFB (SE); % CFB in Central F-VASI at Week 24 (treatment group 200/50 mg (induction 200 mg 4 weeks, maintenance 50 mg 20 weeks)): −23.62%
